From patent US9266883B2, “Ring-fused bicyclic pyridyl derivatives as FGFR4 inhibitors” (Novartis AG, priority 2013, dated 2016) come the findings set out here.

Structures are written as SMILES.

For one assay, the target named is FGFR4 (GST-FGFR4(388-802)) (Homo sapiens (Human), UniProt P22455). The experiment in a line: In-vitro biochemical kinase assay for FGFR4 (Caliper microfluidic mobility shift). The settings on record: biochemical FGFR4 assay; read-out: Biochemical IC50.
Chain of FGFR4 (GST-FGFR4(388-802)) (P22455 388-802): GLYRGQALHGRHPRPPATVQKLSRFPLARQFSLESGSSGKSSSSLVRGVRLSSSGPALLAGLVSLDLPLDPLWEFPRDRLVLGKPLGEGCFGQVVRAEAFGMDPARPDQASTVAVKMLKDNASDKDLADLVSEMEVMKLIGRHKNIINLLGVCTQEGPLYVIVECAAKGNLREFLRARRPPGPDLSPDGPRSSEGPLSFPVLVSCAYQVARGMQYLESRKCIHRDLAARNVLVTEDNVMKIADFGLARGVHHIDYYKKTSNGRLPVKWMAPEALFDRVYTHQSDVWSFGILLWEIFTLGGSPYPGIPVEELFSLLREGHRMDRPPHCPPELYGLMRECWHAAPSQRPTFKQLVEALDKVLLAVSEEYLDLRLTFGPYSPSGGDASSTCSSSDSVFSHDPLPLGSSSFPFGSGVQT
Take `COc1cc(NC(=O)N2CCCc3cc(CN4CCN(C)CC4=O)c(C=O)nc32)ncc1C(F)(F)F` [7-formyl-N-(4-methoxy-5-(trifluoromethyl)pyridin-2-yl)-6-((4-methyl-2-oxopiperazin-1-yl)methyl)-3,4-dihydro-1,8-naphthyridine-1(2H)-carboxamide]: the IC50 was determined as 89.5 nM.
For `CC(=O)N(C)Cc1cc2c(nc1C=O)N(C(=O)Nc1cc(O[C@H]3CCOC3)c(C#N)cn1)CCC2` [(S)-N-(5-cyano-4-((tetrahydrofuran-3-yl)oxy)pyridin-2-yl)-7-formyl-6-((N-methylacetamido)methyl)-3,4-dihydro-1,8-naphthyridine-1(2H)-carboxamide], the IC50 amounted to 0.4 nM.
As to `N#Cc1cnc(NC(=O)N2CCCc3cc(C(F)F)c(C=O)nc32)cc1OCC(F)(F)F` [N-(5-cyano-4-(2,2,2-trifluoroethoxyl)pyridin-2-yl)-6-(difluoromethyl)-7-formyl-3,4-dihydro-1,8-naphthyridine-1(2H)-carboxamide], the IC50 is 110 nM.
Consider `CC(=O)N(C)Cc1cc2c(nc1C=O)N(C(=O)Nc1cc(OCC(F)(F)F)c(C#N)cn1)CCC2` [N-(5-cyano-4-(2,2,2-trifluoroethoxyl)pyridin-2-yl)-7-formyl-6-((N-methylacetamido)methyl)-3,4-dihydro-1,8-naphthyridine-1(2H)-carboxamide], for which the IC50 worked out at 0.5 nM.
For `COCCOc1nc(NC(=O)N2CCCc3cc(C(F)F)c(C=O)nc32)ncc1C#N` [N-(5-cyano-4-(2-methoxyethoxyl)pyrimidin-2-yl)-6-(difluoromethyl)-7-formyl-3,4-dihydro-1,8-naphthyridine-1(2H)-carboxamide], the IC50 was 28 nM.
On to `COCC(C)(C)Nc1cc(NC(=O)N2CCCc3cc(C(F)F)c(C=O)nc32)ncc1C#N` [N-(5-cyano-4-((1-methoxy-2-methylpropan-2-yl)amino)pyridin-2-yl)-6-(difluoromethyl)-7-formyl-3,4-dihydro-1,8-naphthyridine-1(2H)-carboxamide], for which the IC50 amounted to 4.3 nM.
In the case of `COCC(C)Nc1cc(NC(=O)N2CCCc3cc(CN(C)C(C)=O)c(C=O)nc32)ncc1C#N` (centres unmarked) [N-(5-cyano-4-((1-methoxypropan-2-yl)amino)pyridin-2-yl)-7-formyl-6-((N-methylacetamido)methyl)-3,4-dihydro-1,8-naphthyridine-1(2H)-carboxamide], the IC50 was found to be 0.8 nM.
The same measure, in the same setting: with `CC(=O)N(C)Cc1cc2c(nc1C=O)N(C(=O)Nc1cc(NCC(C)(C)O)c(C#N)cn1)CCC2` [N-(5-cyano-4-((2-hydroxy-2-methylpropyl)amino)pyridin-2-yl)-7-formyl-6-((N-methylacetamido)methyl)-3,4-dihydro-1,8-naphthyridine-1(2H)-carboxamide] the figure was 1.6 nM.

Still in this assay, the particulars now being: read-out: Biochemical FGFR4 IC50.
Take `N#Cc1cnc(NC(=O)N2CCCc3ccc(C=O)nc32)cc1OC1CCOC1` (racemic) [Example 40, N-(5-cyano-4-((tetrahydrofuran-3-yl)oxy)pyridin-2-yl)-7-formyl-3,4-dihydro-1,8-naphthyridine-1(2H)-carboxamide]: the IC50 is 0.7 nM.
Take `CC(C)Oc1cc(NC(=O)N2CCCc3cc(C4CCOC4)c(C=O)nc32)ncc1C#N` (racemic) [Example 264, N-(5-cyano-4-isopropoxypyridin-2-yl)-7-formyl-6-(tetrahydrofuran-3-yl)-3,4-dihydro-1,8-naphthyridine-1(2H)-carboxamide]: the IC50 came to 1 nM.
As for `Cc1cnc(NC(=O)N2CCCc3ccc(C=O)nc32)cc1C` [Example 6, N-(4,5-dimethylpyridin-2-yl)-7-formyl-3,4-dihydro-1,8-naphthyridine-1(2H)-carboxamide], the IC50 came out at 110 nM.
As for `Cc1ccc(NC(=O)N2CCOc3ccc(C=O)nc32)nc1` [Example 9, 6-formyl-N-(5-methylpyridin-2-yl)-2H-pyrido[3,2-b][1,4]oxazine-4(3H)-carboxamide], the IC50 amounted to 190 nM.
As for `O=Cc1nc2c(cc1F)CCCN2C(=O)Nc1ccc(C(F)(F)F)cn1` [Example 15, 6-fluoro-7-formyl-N-(5-(trifluoromethyl)pyridin-2-yl)-3,4-dihydro-1,8-naphthyridine-1(2H)-carboxamide], the IC50 turned out to be 45 nM.
Still for that read-out and setting: with `CC(C)S(=O)(=O)c1ccccc1Nc1nc(NC(=O)N2CCCc3ccc(C=O)nc32)ncc1Cl` [Example 16, N-(5-chloro-4-((2-(isopropylsulfonyl)phenyl)amino)pyrimidin-2-yl)-7-formyl-3,4-dihydro-1,8-naphthyridine-1(2H)-carboxamide] the figure was 0.2 nM; with `O=Cc1nc2c(cc1CO)CCCN2C(=O)Nc1ccc(C(F)(F)F)cn1` [Example 18, 7-formyl-6-(hydroxymethyl)-N-(5-(trifluoromethyl)pyridin-2-yl)-3,4-dihydro-1,8-naphthyridine-1(2H)-carboxamide], 98 nM; with `Cc1cc2c(nc1C=O)N(C(=O)Nc1ccc(C(F)(F)F)cn1)CCC2` [Example 20, 7-formyl-6-methyl-N-(5-(trifluoromethyl)pyridin-2-yl)-3,4-dihydro-1,8-naphthyridine-1(2H)-carboxamide], 68.5 nM.
On to `CN1CCC2(CCN(c3cc(NC(=O)N4CCCc5ccc(C=O)nc54)ncc3C#N)CC2)C1` [Example 28, N-(5-cyano-4-(2-methyl-2,8-diazaspiro[4.5]decan-8-yl)pyridin-2-yl)-7-formyl-3,4-dihydro-1,8-naphthyridine-1(2H)-carboxamide], for which the IC50 stood at 3.4 nM.
Still for that read-out and setting: with `N#Cc1ccc(NC(=O)N2CCCc3cc(C(F)F)c(C=O)nc32)nc1` [Example 37, N-(5-cyanopyridin-2-yl)-6-(difluoromethyl)-7-formyl-3,4-dihydro-1,8-naphthyridine-1(2H)-carboxamide] the figure was 19 nM; with `CN(C)CCOc1cc(NC(=O)N2CCOc3ccc([13CH]=O)nc32)ncc1C#N` [Example 77, N-(5-cyano-4-(2-(dimethylamino)ethoxy)pyridin-2-yl)-6-form-^13C-yl-2H-pyrido[3,2-b][1,4]oxazine-4(3H)-carboxamide], 43 nM.
On the same count and under the same terms, with `N#Cc1cnc(NC(=O)N2CCCc3cc(CO)c(C=O)nc32)cc1NCCF` [Example 88, N-(5-cyano-4-((2-fluoroethyl)amino)pyridin-2-yl)-7-formyl-6-(hydroxymethyl)-3,4-dihydro-1,8-naphthyridine-1(2H)-carboxamide] the figure was 2.3 nM; with `COCCNc1cc(NC(=O)N2CCCc3cc(-n4cnc(C)n4)c(C=O)nc32)ncc1C#N` [Example 260, N-(5-cyano-4-((2-methoxyethyl)amino)pyridin-2-yl)-7-formyl-6-(3-methyl-1H-1,2,4-triazol-1-yl)-3,4-dihydro-1,8-naphthyridine-1(2H)-carboxamide], 14 nM.

Staying with this assay, now noted: read-out: IC50 in the biochemical assay.
In the case of `O=Cc1nc2c(cc1CO)CCCN2C(=O)Nc1nccc(O[C@H]2CCOC2)n1` [(S)-7-formyl-6-(hydroxymethyl)-N-(4-((tetrahydrofuran-3-yl)oxy)pyrimidin-2-yl)-3,4-dihydro-1,8-naphthyridine-1(2H)-carboxamide], the IC50 was greater than 1000 nM.
Still for that read-out and setting: with `COCCOc1cc(NC(=O)N2CCCc3cc(CN4CCCC4=O)c(C=O)nc32)ncc1C#N` [N-(5-cyano-4-(2-methoxyethoxyl)pyridin-2-yl)-7-formyl-6-((2-oxopyrrolidin-1-yl)methyl)-3,4-dihydro-1,8-naphthyridine-1(2H)-carboxamide] the figure was greater than 1000 nM.

Broadly, the IC50 is the concentration that gives 50% inhibition.
